Laboratory results from US20250145594A1, “MODULATORS OF THE INTEGRATED STRESS PATHWAY” (Calico Life Sciences LLC, priority 2020, published 2025).

Test system: ATF4 luciferase reporter in HEK293T cells
Assay: ATF4-Luc assay (in vitro model of VWMD)
Type: cell-based, human
Details: Homo sapiens, HEK-293T, 7 h, HEK293T cells carrying the ATF4 luciferase reporter, 1 μg/mL tunicamycin, One Glo luminescence
Method in brief: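 Tunicamycin (1 μg/mL) stress with co-added compound for 7 hours in HEK293T cells stably carrying an ATF4 5′-UTR–luciferase reporter. EC50 values come from the luminescent signal (One Glo).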

## O=C(NC12CC(n3cc(OCCOC(F)(F)F)cn3)(C1)C2)[C@H]1C[C@H](O)c2cc(C(F)(F)F)c(F)cc2O1 [Compound 633, (2R,43)-7-fluoro-4-hydroxy-N-(3-{4-[2-(trifluoromethoxy)ethoxy]-1H-pyrazol-1-yl}bicyclo[1.1.1]pentan-1-yl)-6-(trifluoromethyl)-3,4-dihydro-2H-1-benzopyran-2-carboxamide]
  EC50: < 10 nM

## O=C(NC12CC(c3cnc([C@H]4C[C@@H](OC(F)(F)F)C4)o3)(C1)C2)[C@H]1C[C@@H](O)c2cc(Cl)ccc2O1 [Compound 410, (2R,4R)-6-chloro-4-hydroxy-N-(3-{2-[cis-3-(trifluoromethoxy)cyclobutyl]-1,3-oxazol-5-yl}bicyclo[1.1.1]pentan-1-yl)-3,4-dihydro-2H-1-benzopyran-2-carboxamide]
  EC50: < 10 nM

## O=C(COc1ccc(Cl)c(F)c1)NC12CC(c3ccc(OCCOC(F)(F)F)nc3)(C1)C2 [Compound 456, 2-(4-chloro-3-fluorophenoxy)-N-(3-{6-[2-(trifluoromethoxy)ethoxy]pyridin-3-yl}bicyclo[1.1.1]pentan-1-yl)acetamide]
  EC50: 50 to 250 nM

## O=C(N[C@H]1CC[C@H](n2cc(OCCCOC(F)(F)F)cn2)CC1)[C@H]1C[C@@H](O)c2cc(Cl)c(F)cc2O1 [Compound 422, (2R,4R)-6-chloro-7-fluoro-4-hydroxy-N-[(1r,4R)-4-{4-[3-(trifluoromethoxy)propoxy]-1H-pyrazol-1-yl}cyclohexyl]-3,4-dihydro-2H-1-benzopyran-2-carboxamide]
  EC50: < 10 nM

## O=C(CO[C@H]1C[C@@H](OC(F)(F)F)C1)NC12CC(NC(=O)[C@@H]3C[C@@H](O)c4cc(Cl)c(F)cc4O3)(C1)C2 [Compound 491, (2S,4R)-6-chloro-7-fluoro-4-hydroxy-N-[3-(2-{[(1s,3R)-3-(trifluoromethoxy)cyclobutyl]oxy}acetamido)bicyclo[1.1.1]pentan-1-yl]-3,4-dihydro-2H-1-benzopyran-2-carboxamide]
  EC50: < 10 nM

## O=C(NC12CC(n3cc(-c4ccc(C(F)(F)F)cn4)cn3)(C1)C2)[C@H]1C[C@@H](O)c2cc(C(F)(F)F)c(F)cc2O1 [Compound 484, (2R,4R)-7-fluoro-4-hydroxy-6-(trifluoromethyl)-N-(3-{4-[5-(trifluoromethyl)pyridin-2-yl]-1H-pyrazol-1-yl}bicyclo[1.1.1]pentan-1-yl)-3,4-dihydro-2H-1-benzopyran-2-carboxamide]
  EC50: < 10 nM

## O=C(COc1ccc(Cl)cc1O)NC12CC(n3cc(OCCOC(F)(F)F)cn3)(C1)C2 [Compound 616, 2-(4-chloro-2-hydroxyphenoxy)-N-(3-{4-[2-(trifluoromethoxy)ethoxy]-1H-pyrazol-1-yl}bicyclo[1.1.1]pentan-1-yl)acetamide]
  EC50: < 10 nM

## COCCOc1cnn(C23CC(NC(=O)[C@H]4C[C@@H](O)c5cc(Cl)ccc5O4)(C2)C3)c1 [Compound 426, (2R,4R)-6-chloro-4-hydroxy-N-{3-[4-(2-methoxyethoxy)-1H-pyrazol-1-yl]bicyclo[1.1.1]pentan-1-yl}-3,4-dihydro-2H-1-benzopyran-2-carboxamide]
  EC50: 250 to 500 nM

## O=C(NC12CC(c3ccnc(OCCOC(F)(F)F)n3)(C1)C2)[C@H]1C[C@@H](O)c2cc(C(F)(F)F)c(F)cc2O1 [Compound 593, (2R,4R)-7-fluoro-4-hydroxy-N-(3-{2-[2-(trifluoromethoxy)ethoxy]pyrimidin-4-yl}bicyclo[1.1.1]pentan-1-yl)-6-(trifluoromethyl)-3,4-dihydro-2H-1-benzopyran-2-carboxamide]
  EC50: 10 to 50 nM

## O=C(COc1ccc(Cl)c(F)c1)N[C@H]1CC[C@H](n2cc(OCCOC(F)(F)F)cn2)CC1 [Compound 457, 2-(4-chloro-3-fluorophenoxy)-N-[(1r,4r)-4-{4-[2-(trifluoromethoxy)ethoxy]-1H-pyrazol-1-yl}cyclohexyl]acetamide]
  EC50: < 10 nM

## O=C(NC12CC(n3cc(-c4ccc(OC(F)(F)F)cn4)cn3)(C1)C2)[C@H]1C[C@@H](O)c2cc(Cl)c(Cl)cc2O1 [Compound 566, (2R,4R)-6,7-dichloro-4-hydroxy-N-(3-{4-[5-(trifluoromethoxy)pyridin-2-yl]-1H-pyrazol-1-yl}bicyclo[1.1.1]pentan-1-yl)-3,4-dihydro-2H-1-benzopyran-2-carboxamide]
  EC50: < 10 nM

## O=C(CO[C@H]1C[C@@H](OC(F)(F)F)C1)NC12CC(NC(=O)[C@H]3C[C@H](O)c4cc(Cl)c(F)cc4O3)(C1)C2 [Compound 496, (2R,4S)-6-chloro-7-fluoro-4-hydroxy-N-[3-(2-{[(1s,3S)-3-(trifluoromethoxy)cyclobutyl]oxy}acetamido)bicyclo[1.1.1]pentan-1-yl]-3,4-dihydro-2H-1-benzopyran-2-carboxamide]
  EC50: < 10 nM

## O=C(NC12CC(c3ccc(-n4cnc(C(F)(F)F)c4)nc3)(C1)C2)[C@H]1C[C@@H](O)c2cc(Cl)ccc2O1 [Compound 559, (2R,4R)-6-chloro-4-hydroxy-N-(3-{6-[4-(trifluoromethyl)-1H-imidazol-1-yl]pyridin-3-yl}bicyclo[1.1.1]pentan-1-yl)-3,4-dihydro-2H-1-benzopyran-2-carboxamide]
  EC50: 10 to 50 nM

## O=C(CO[C@H]1C[C@@H](OC(F)(F)F)C1)NC12CC(NC(=O)[C@H]3C[C@@H](O)c4cc(Cl)ccc4O3)(C1)C2 [Compound 164, (2R,4R)-6-chloro-4-hydroxy-N-[3-(2-{[cis-3-(trifluoromethoxy)cyclobutyl]oxy}acetamido)bicyclo[1.1.1]pentan-1-yl]-3,4-dihydro-2H-1-benzopyran-2-carboxamide]
  EC50: < 10 nM

## O=C(N[C@H]1CC[C@H](n2cc(OCCCOC(F)(F)F)cn2)CC1)[C@H]1C[C@@H](O)c2cc(Cl)ccc2O1 [Compound 423, (2R,4R)-6-chloro-4-hydroxy-N-[(1r,4R)-4-{4-[3-(trifluoromethoxy)propoxy]-1H-pyrazol-1-yl}cyclohexyl]-3,4-dihydro-2H-1-benzopyran-2-carboxamide]
  EC50: < 10 nM

## O=C(NC12CC(c3cn([C@H]4C[C@@H](OC(F)(F)F)C4)nn3)(C1)C2)[C@H]1C[C@@H](O)c2cc(Cl)ccc2O1 [Compound 315, (2R,4R)-6-chloro-4-hydroxy-N-(3-{1-[cis-3-(trifluoromethoxy)cyclobutyl]-1H-1,2,3-triazol-4-yl}bicyclo[1.1.1]pentan-1-yl)-3,4-dihydro-2H-1-benzopyran-2-carboxamide]
  EC50: 10 to 50 nM

## O=C(NC12CC(n3cc([C@@H]4CC[C@H](OC(F)(F)F)C4)nn3)(C1)C2)[C@H]1C[C@@H](O)c2cc(Cl)ccc2O1 (mixture of isomers) [Compound 539, (2R,4R)-6-chloro-4-hydroxy-N-(3-{4-[(1RS,3SR)-3-(trifluoromethoxy)cyclopentyl]-1H-1,2,3-triazol-1-yl}bicyclo[1.1.1]pentan-1-yl)-3,4-dihydro-2H-1-benzopyran-2-carboxamide]
  EC50: 10 to 50 nM

## O=C(CO[C@H]1C[C@@H](OC(F)(F)F)C1)NC12CC(NC(=O)[C@H]3C[C@H](O)c4cc(C(F)(F)F)c(F)cc4O3)(C1)C2 [Compound 643, (2R,4S)-7-fluoro-4-hydroxy-N-[3-(2-{[(1s,3S)-3-(trifluoromethoxy)cyclobutyl]oxy}acetamido)bicyclo[1.1.1]pentan-1-yl]-6-(trifluoromethyl)-3,4-dihydro-2H-1-benzopyran-2-carboxamide]
  EC50: < 10 nM

## COc1ncc(-c2cnn(C34CC(NC(=O)[C@H]5C[C@@H](O)c6cc(C(F)(F)F)c(F)cc6O5)(C3)C4)c2)cn1 [Compound 639, (2R,4R)-7-fluoro-4-hydroxy-N-{3-[4-(2-methoxypyrimidin-5-yl)-1H-pyrazol-1-yl]bicyclo[1.1.1]pentan-1-yl}-6-(trifluoromethyl)-3,4-dihydro-2H-1-benzopyran-2-carboxamide]
  EC50: < 10 nM

## O=C(NC12CC(n3cnc(-c4ccc(Cl)cc4F)c3)(C1)C2)[C@H]1C[C@@H](O)c2cc(Cl)ccc2O1 [Compound 343, (2R,4R)-6-chloro-N-{3-[4-(4-chloro-2-fluorophenyl)-1H-imidazol-1-yl]bicyclo[1.1.1]pentan-1-yl}-4-hydroxy-3,4-dihydro-2H-1-benzopyran-2-carboxamide]
  EC50: < 10 nM

## O=C(NC12CC(c3ccc(C(=O)N4CC(OCC(F)(F)F)C4)nc3)(C1)C2)[C@H]1C[C@@H](O)c2cc(Cl)ccc2O1 [Compound 533, (2R,4R)-6-chloro-4-hydroxy-N-(3-{6-[3-(2,2,2-trifluoroethoxy)azetidine-1-carbonyl]pyridin-3-yl}bicyclo[1.1.1]pentan-1-yl)-3,4-dihydro-2H-1-benzopyran-2-carboxamide]
  EC50: < 10 nM

## O=C(NC12CC(c3cnn([C@H]4C[C@@H](OC(F)(F)F)C4)c3)(C1)C2)[C@H]1C[C@@H](O)c2cc(Cl)ccc2O1 [Compound 316, (2R,4R)-6-chloro-4-hydroxy-N-(3-{1-[cis-3-(trifluoromethoxy)cyclobutyl]-1H-pyrazol-4-yl}bicyclo[1.1.1]pentan-1-yl)-3,4-dihydro-2H-1-benzopyran-2-carboxamide]
  EC50: < 10 nM

## O=C(NC12CC(n3cc([C@H]4C[C@@H](OC(F)(F)F)C4)nn3)(C1)C2)[C@H]1C[C@@H](O)c2cc(Cl)ccc2O1 [Compound 385, (2R,4R)-6-chloro-4-hydroxy-N-(3-{4-[cis-3-(trifluoromethoxy)cyclobutyl]-1H-1,2,3-triazol-1-yl}bicyclo[1.1.1]pentan-1-yl)-3,4-dihydro-2H-1-benzopyran-2-carboxamide]
  EC50: < 10 nM

## O=C(NC12CC(n3cc(O[C@H]4C[C@H](OC(F)(F)F)C4)cn3)(C1)C2)[C@H]1C[C@@H](O)c2cc(Cl)ccc2O1 [Compound 587, (2R,4R)-6-chloro-4-hydroxy-N-[3-(4-{[(1r,3R)-3-(trifluoromethoxy)cyclobutyl]oxy}-1H-pyrazol-1-yl)bicyclo[1.1.1]pentan-1-yl]-3,4-dihydro-2H-1-benzopyran-2-carboxamide]
  EC50: < 10 nM

## O=C(NC12CC(c3ccnc(-n4cc(C(F)(F)F)cn4)c3)(C1)C2)[C@H]1C[C@@H](O)c2cc(C(F)(F)F)ccc2O1 [Compound 558, (2R,4R)-4-hydroxy-6-(rifluoromethyl)-N-(3-{2-[4-(trifluoromethyl)-1H-pyrazol-1-yl]pyridin-4-yl}bicyclo[1.1.1]pentan-1-yl)-3,4-dihydro-2H-1-benzopyran-2-carboxamide]
  EC50: 10 to 50 nM
